Reference: patent publication US20210079037A1, “LIGHT-SWITCHABLE POLYPEPTIDE AND USES THEREOF” (TECHNISCHE UNIVERSITÄT MÜNCHEN, priority 2017, published 2021)

Legend:
[1] = Solubility in water and culture medium; format: physicochemical; settings: physiological pH
[2] = prior art amino acid; cited from earlier work
[3] = Light-induced isomerization of Caf, analysis by UV-VIS spectroscopy; format: physicochemical; settings: 30 μM aqueous solution; alternating UV and green LED irradiation over 3 cycles
Source text: The electronic transition π→π* is usually in the near UV region around 340 nm (Sension et al. 1993 J. Chem. Phys. 98: 6291-6315) whereas the electronic transition n→π* is usually located in the visible (VIS) region around 420 nm and is due to the presence of unshared electron pairs of the nitrogen atoms (Naegele et al. 1997 Chem. Phys. Lett. 272: 489-495). To examine whether the synthesized non-natural amino acid Caf (7) can respond to photoswitching induced by UV light, the compound was subjected to alternating irradiation cycles. In a typical experiment, 0.5 ml of a 30 μM aqueous solution was placed in a quartz cuvette with 1 cm optical pathlength. Then the sample was irradiated for 30 min from the top using a UV LED (NS355L-5RLO; Nitride Semiconductors, Tokushima, Japan) with 353 nm or a green LED (LL-504PGC2E-G5-2CC; Lucky Light Electronics, Hongkong, China) with 520 nm emitting wavelength. The change in intensity of the π-π* band at around 340 nm corresponding to the trans/cis isomerization (FIG. 4A) was monitored with a computer controlled photometer (Ultrospec 2100 pro, Amersham Biosciences).

[4] = Light-induced isomerization of Caf, analysis by HPLC; format: physicochemical; settings: for isomer composition after irradiation with green light (HPLC): green LED light, λ=520 nm, after UV irradiation; for isomer composition before irradiation (HPLC): ground state, prior to irradiation
Experimental: 500 μl of a 60 μM solution of Caf (7) in water was placed in a 1.5 ml HPLC vial (Screw neck vial N9, amber glass, 11.6×32 mm; Macherey Nagel, Duren, Germany) and irradiated with a UV LED (λ=353 nm, NS355L-5RLO; Nitride Semiconductors, Tokushima, Japan) for 30 min directly from the top. Before and after irradiation, a 20 μl sample of the solution was withdrawn and analyzed by HPLC on a Purospher RP-8e 250×3 mm column (Merck), applying a concentration gradient of 10-12% acetonitrile (ACN) in 50 mM NH4OAc buffer pH 8 over 10 min (flow rate 0.6 ml/min). Another sample was analyzed in the same manner after irradiation with green LED light (λ=520 nm, LL-504PGC2E-G5-2CC, Lucky Light Electronics, Hongkong, China). […] The chromatograms reveal that the cis and trans isomers of (7) can be separated by HPLC (cis-(7) tR=3.6 min, trans-(7) tR=4.6 min). […] However, it should be taken into account that also during HPLC analysis reisomerization of cis-(7) to trans-(7) takes place, so the proportion of cis-(7) after irradiation with UV light might actually be higher than indicated by HPLC chromatograms. Thus, if the light-switchable polypeptide of the present invention is applied for an affinity chromatography procedure, and the trans configuration corresponds to the high affinity state whereas the cis configuration corresponds to the low affinity conformation, then the highest degree of binding and the highest degree of elution of the molecule of interest takes place at 430 nm and 330 nm, respectively. However, conventional light sources usually provide light having wavelengths that are around 530 nm (visible light) and 365 nm (UV light). Therefore, also light providing these wavelengths (i.e. around 530 nm and/or around 365 nm) may be used in accordance with the present invention.

solubility in water and LB culture medium [1]	photoswitching between trans and cis configuration (absorbance at about 340 nm) [3]	isomer composition after irradiation with UV light (HPLC) ([4]; after irradiation with UV light)	proportion of cis-(7) ([4]; after irradiation with UV light for 30 min, 60 μM in water, HPLC at 286 nm)	isomer composition after irradiation with green light (HPLC) [4]	isomer composition after irradiation with green light (HPLC) ([4]; listed as 7)	isomer composition before irradiation (HPLC) [4]	isomer composition before irradiation (HPLC) ([4]; listed as 7)	Structure (SMILES)	solubility in water as well as culture media [2]
good solubility								N[C@@H](Cc1ccc(N=Nc2cccc(C(=O)O)c2)cc1)C(=O)O [3′-carboxyphenylazophenylalanine, 4-[(3-Carboxyphenyl)azo]-L-phenylalanine]	
								N[C@@H](Cc1ccc(N=Nc2ccccc2)cc1)C(=O)O [AzoPhe]	extremely poor solubility
good solubility	reversible photoswitching	mostly cis isomer	up to 86%	recovering the ground state	mostly trans isomer	only energetically favored trans-(7)	essentially pure trans isomer	N[C@@H](Cc1ccc(N=Nc2ccc(C(=O)O)cc2)cc1)C(=O)O [Caf, 4-[(4-carboxyphenyl)azo]-L-phenylalanine]	
